Some results are limits rather than exact numbers.

Holding throughout (format): binding
Test [1] has as its target T1, Avi-KRAS G12D (1-169) GppNHp/RAF1 RBD-3xFLAG (52-151) (Homo sapiens, UniProt P01116, G12D).
T1 construct: Avi-KRAS G12D (1-169)
Kind of test: Raf1-KRAS G12D-GppNHP disruption HTRF assay (Biological Example 1). The settings on record: KRAS G12D-GppNHp/RAF1 RBD HTRF. Summed up:
(§1)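 Measured with a KRAS/RAF1 HTRF assay at pH 7.5 in 10% DMSO, with two 1 h room-temperature incubations with shaking.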

The target in test [2] is T2, Avi-KRAS G12R (1-169) GppNHp/RAF1 RBD-3xFLAG (52-151) (Homo sapiens, UniProt P01116, G12R).
T2 construct: Avi-KRAS G12R (1-169)
Put plainly: Raf1-KRAS G12R-GppNHP disruption HTRF assay (Biological Example 1). The settings on record: KRAS G12R-GppNHp/RAF1 RBD HTRF. The procedure, abridged: as §1
(In general: In TR-FRET formats the signal depends on donor and acceptor labels being close together.)

In test [3] the target is T3, Avi-KRAS G12V (1-169) GppNHp/RAF1 RBD-3xFLAG (52-151) (Homo sapiens, UniProt P01116, G12V).
T3 construct: Avi-KRAS G12V (1-169)
Put plainly: Raf1-KRAS G12V-GppNHP disruption HTRF assay (Biological Example 1). Particulars: KRAS G12V-GppNHp/RAF1 RBD HTRF. Summed up: as §1

Test [4] concerns the target T4, Avi-KRAS WT (1-169) GppNHp/RAF1 RBD-3xFLAG (52-151) (Homo sapiens, UniProt P01116).
T4 construct: Avi-KRAS WT (1-169)
Kind of test: Raf1-KRAS WT-GppNHP disruption HTRF assay (Biological Example 1). The settings on record: KRAS WT-GppNHp/RAF1 RBD HTRF. Summed up: as §1

In test [5] the target is T5, Avi-KRAS G12D (2-169) GTP/RAF1 RBD-3xFLAG (51-131) (Homo sapiens, UniProt P01116, G12D).
T5 construct: Avi-KRAS G12D (2-169)
Put plainly: Raf1-KRAS G12D-GTP disruption HTRF assay (Biological Example 3). The settings on record: KRAS G12D, GTP-loaded. Summed up:
(§2)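 50 nM Avi-KRAS (2-169) GTP/RAF1 RBD complex; 75 nM RBD-Avi; pH 7.5 Tris buffer, 10% DMSO; cpd 30 μM top, 3x, 10 pts; 1 h RT, 700 rpm; HTRF, % of DMSO.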

The target of test [6] is T6, Avi-KRAS G12C (2-169) GTP/RAF1 RBD-3xFLAG (51-131) (Homo sapiens, UniProt P01116, G12C).
T6 construct: Avi-KRAS G12C (2-169)
Put plainly: Raf1-KRAS G12C-GTP disruption HTRF assay (Biological Example 3). Particulars: KRAS G12C, GTP-loaded. Summed up:
as §2

For test [7], the target named is T7, Avi-KRAS G12V (2-169) GTP/RAF1 RBD-3xFLAG (51-131) (Homo sapiens, UniProt P01116, G12V).
T7 construct: Avi-KRAS G12V (2-169)
Put plainly: Raf1-KRAS G12V-GTP disruption HTRF assay (Biological Example 3). Particulars: KRAS G12V, GTP-loaded. The procedure, abridged: as §2

T7 sequence (P01116 2-169 isoform P01116-2 G12V): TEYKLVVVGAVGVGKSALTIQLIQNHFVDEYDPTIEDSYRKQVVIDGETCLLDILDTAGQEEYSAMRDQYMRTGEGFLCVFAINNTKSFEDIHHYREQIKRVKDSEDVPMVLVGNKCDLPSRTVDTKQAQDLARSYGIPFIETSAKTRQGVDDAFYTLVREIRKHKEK
T3 sequence (P01116 1-169 isoform P01116-2 G12V): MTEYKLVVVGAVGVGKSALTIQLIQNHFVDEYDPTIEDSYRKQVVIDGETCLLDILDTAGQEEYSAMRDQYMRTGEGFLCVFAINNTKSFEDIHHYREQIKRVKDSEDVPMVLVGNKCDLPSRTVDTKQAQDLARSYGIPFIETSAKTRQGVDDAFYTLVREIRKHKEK
T1 sequence (P01116 1-169 isoform P01116-2 G12D): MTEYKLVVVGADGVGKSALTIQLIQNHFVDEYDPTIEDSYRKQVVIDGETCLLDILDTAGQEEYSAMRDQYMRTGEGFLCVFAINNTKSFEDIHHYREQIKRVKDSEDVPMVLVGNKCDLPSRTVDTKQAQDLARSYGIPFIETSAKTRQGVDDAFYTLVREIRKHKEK
T5 sequence (P01116 2-169 isoform P01116-2 G12D): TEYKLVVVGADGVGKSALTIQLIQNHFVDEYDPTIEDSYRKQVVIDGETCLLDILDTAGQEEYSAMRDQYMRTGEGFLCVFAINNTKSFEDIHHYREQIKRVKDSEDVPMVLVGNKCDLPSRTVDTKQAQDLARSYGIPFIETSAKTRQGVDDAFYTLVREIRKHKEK
T2 sequence (P01116 1-169 isoform P01116-2 G12R): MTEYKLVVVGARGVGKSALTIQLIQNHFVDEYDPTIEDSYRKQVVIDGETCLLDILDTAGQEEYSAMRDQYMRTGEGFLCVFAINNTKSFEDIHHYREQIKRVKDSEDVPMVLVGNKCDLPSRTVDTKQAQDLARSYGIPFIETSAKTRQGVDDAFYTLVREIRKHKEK
T6 sequence (P01116 2-169 isoform P01116-2 G12C): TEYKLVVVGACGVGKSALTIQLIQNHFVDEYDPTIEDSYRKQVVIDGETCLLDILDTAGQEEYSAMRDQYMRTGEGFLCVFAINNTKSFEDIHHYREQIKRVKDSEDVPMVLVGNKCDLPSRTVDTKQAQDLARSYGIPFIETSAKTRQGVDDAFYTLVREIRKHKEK
T4 sequence (P01116 1-169 isoform P01116-2): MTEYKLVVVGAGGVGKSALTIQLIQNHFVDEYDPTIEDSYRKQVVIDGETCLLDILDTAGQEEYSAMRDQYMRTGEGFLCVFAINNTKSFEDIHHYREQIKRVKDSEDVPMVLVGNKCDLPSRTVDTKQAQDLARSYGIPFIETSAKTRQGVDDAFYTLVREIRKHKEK

In the case of `CCN(c1nc(OC[C@@]23CCCN2C[C@H](F)C3)nc2c(F)c(-c3ccc(F)c4sc(N)c(C#N)c34)c(C(F)(F)F)cc12)[C@@H]1C[C@@H]2CCC(=O)N2C1` [Compound 511], the IC50 in test [1] fell in the range of 100 to 1000 nM; in test [2] it was 1000 to 10000 nM; in test [3], 100 to 1000 nM; in test [4] it was 100 to 1000 nM; in test [5], 1000 to 10000 nM; in test [6], 1000 to 10000 nM. In test [7], this compound gave an IC50 of 1000 to 10000 nM.
Take `CCN(c1nc(OC[C@@]23CCCN2C[C@H](F)C3)nc2c(F)c(-c3ccc(F)c4sc(N)c(C#N)c34)c(C(F)(F)F)cc12)[C@H]1CCN(C(=O)OC)C1` (atropisomer, axis not shown) [Compound 541, methyl(3S)-3-[[7-(2-amino-3-cyano-7-fluoro-benzothiophen-4-yl)-8-fluoro-2-[[(2R,8S)-2-fluoro-1,2,3,5,6,7-hexahydropyrrolizin-8-yl]methoxy]-6-(trifluoromethyl)quinazolin-4-yl]-ethyl-amino]pyrrolidine-1-carboxylate]: the IC50 in test [1] is under 100 nM; in test [2], under 100 nM; in test [3] it was under 100 nM; in test [4] it was under 100 nM; in test [5], at most 100 nM; in test [6] it was at most 100 nM. In test [7], this compound registered an IC50 of at most 100 nM.
As for `CCN(c1nc(OC[C@@]23CCCN2C[C@H](F)C3)nc2c(F)c(-c3ccc(F)c4sc(N)c(C#N)c34)c(C(F)(F)F)cc12)[C@H]1CCN(C(=O)c2ccon2)C1` (atropisomer, axis not shown) [Compound 554], the IC50 in test [1] was under 100 nM; in test [2] it was under 100 nM; in test [3], under 100 nM; in test [4], under 100 nM; in test [5] it was at most 100 nM; in test [6], 100 to 1000 nM. Also, the IC50 in test [7] was in the range of 100 to 1000 nM.
With `CCC(=O)N1CC[C@@H](N(CC)c2nc(OC[C@@]34CCCN3C[C@H](F)C4)nc3c(F)c(-c4ccc(F)c5sc(N)c(C#N)c45)c(C(F)(F)F)cc23)[C@H]1C` (atropisomer, axis not shown) [Compound 523], the IC50 in test [1] was under 100 nM; in test [2] it was under 100 nM; in test [3], under 100 nM; in test [4], under 100 nM; in test [5] it was at most 100 nM; in test [6], at most 100 nM. The compound further gave an IC50 in test [7] of at most 100 nM.
As for `CCN(c1nc(OC[C@@]23CCCN2C[C@H](F)C3)nc2c(F)c(-c3ccc(F)c4sc(N)c(C#N)c34)c(C(F)(F)F)cc12)[C@@H]1C[C@H](C)N(C(C)=O)C1` (atropisomer, axis not shown) [Compound 534], the IC50 in test [1], in test [2], in test [3], in test [4], in test [5] and in test [6] was 100 to 1000 nM throughout. Further, the IC50 in test [7] was 100 to 1000 nM.
Take `CCN1C[C@@H](N(CC)c2nc(OC[C@@]34CCCN3C[C@H](F)C4)nc3c(F)c(-c4ccc(F)c5sc(N)c(C#N)c45)c(C(F)(F)F)cc23)CC1=O` [Compound 529, 2-amino-4-(4-(ethyl((S)-1-ethyl-5-oxopyrrolidin-3-yl)amino)-8-fluoro-2-(((2R,7aS)-2-fluorotetrahydro-1H-pyrrolizin-7a(5H)-yl)methoxy)-6-(trifluoromethyl)quinazolin-7-yl)-7-fluorobenzo[b]thiophene-3-carbonitrile]: the IC50 in test [1] is under 100 nM; in test [2], under 100 nM; in test [3] it was under 100 nM; in test [4], under 100 nM; in test [5], at most 100 nM; in test [6] it was at most 100 nM. For the same compound, the IC50 in test [7] was at most 100 nM.
As to `CCN(c1nc(OC[C@@]23CCCN2C[C@H](F)C3)nc2c(F)c(-c3ccc(F)c4sc(N)c(C#N)c34)c(C(F)(F)F)cc12)[C@H]1C[C@@H]2COC(=O)N2C1` (atropisomer, axis not shown) [Compound 519], the IC50 was under 100 nM in test [1]; under 100 nM in test [2]; 100 to 1000 nM in test [3]; under 100 nM in test [4]; at most 100 nM in test [5]; 100 to 1000 nM in test [6]. The concentration for half-maximal inhibition (IC50) in test [7] fell in the range of 100 to 1000 nM.
With `Cc1c(C(=O)N(C)C)nn2c1CN(c1nc(OC[C@@]34CCCN3C[C@H](F)C4)nc3c(F)c(-c4ccc(F)c5sc(N)c(C#N)c45)c(C(F)(F)F)cc13)CC2` [Compound 501], the half-inhibitory concentration (IC50) in test [1] was under 100 nM; in test [2], under 100 nM; in test [3], 100 to 1000 nM; in test [4], 100 to 1000 nM; in test [5], 100 to 1000 nM; in test [6] it was 100 to 1000 nM. This compound registered an IC50 in test [7] of 100 to 1000 nM.
Regarding `CCN(c1nc(OC[C@@]23CCCN2C[C@H](F)C3)nc2c(F)c(-c3ccc(F)c4sc(N)c(C#N)c34)c(C(F)(F)F)cc12)[C@@H]1C[C@H]2CCC(=O)N2C1` (atropisomer, axis not shown) [Compound 532], the IC50 in test [1], in test [2], in test [3], in test [4], in test [5] and in test [6] was 100 to 1000 nM in each case. Further, the IC50 in test [7] was 100 to 1000 nM.
Consider `CCN(c1nc(OC[C@@]23CCCN2C[C@H](F)C3)nc2c(F)c(-c3ccc(F)c4sc(N)c(C#N)c34)c(C(F)(F)F)cc12)[C@H]1C[C@H](C)N(C(=O)C2COC2)C1` (atropisomer, axis not shown) [Compound 539], for which the IC50 was under 100 nM in test [1]; under 100 nM in test [2]; under 100 nM in test [3]; under 100 nM in test [4]; 100 to 1000 nM in test [5]; 100 to 1000 nM in test [6]. The IC50 in test [7] lay in the range of 100 to 1000 nM.
With `CCN(c1nc(OC[C@@]23CCCN2C[C@H](F)C3)nc2c(F)c(-c3ccc(F)c4sc(N)c(C#N)c34)c(C(F)(F)F)cc12)[C@H]1C[C@H](C)N(C(=O)COC)C1` (atropisomer, axis not shown) [Compound 538], the IC50 in test [1] was under 100 nM; in test [2], under 100 nM; in test [3], under 100 nM; in test [4] it was under 100 nM; in test [5], at most 100 nM; in test [6], at most 100 nM. For the same compound, in test [7], the IC50 is at most 100 nM.
Turning to `CN(C)C(=O)c1nn2c(c1Cl)CN(c1nc(OC[C@@]34CCCN3C[C@H](F)C4)nc3c(F)c(-c4ccc(F)c5sc(N)c(C#N)c45)c(C(F)(F)F)cc13)CC2` [Compound 517], the IC50 in test [1] was under 100 nM; in test [2] it was under 100 nM; in test [3] it was under 100 nM; in test [4], 100 to 1000 nM; in test [5], 100 to 1000 nM; in test [6] it was 100 to 1000 nM. The IC50 in test [7] lay in the range of 100 to 1000 nM.
For the compound `CCN(c1nc(OC[C@@]23CCCN2C[C@H](F)C3)nc2c(F)c(-c3ccc(F)c4sc(N)c(C#N)c34)c(C(F)(F)F)cc12)[C@@H]1CC(=O)N(C2CC2)C1` [Compound 537], the IC50 in test [1] is under 100 nM; in test [2] it was under 100 nM; in test [3] it was under 100 nM; in test [4] it was under 100 nM; in test [5], at most 100 nM; in test [6], 100 to 1000 nM. For the same compound, the IC50 in test [7] was at most 100 nM.

In general, IC50 refers to the concentration that inhibits the measured activity by half. Lower therefore signals greater potency.

These data come from patent publication US20260042764A1, “COMPOSITIONS AND METHODS FOR INHIBITION OF KRAS” (TheRas, Inc., priority 2022, published 2026).
